Results reported in article PMC2881055, “Endocytic pathways mediating oligomeric Aβ42 neurotoxicity” (Molecular Neurodegeneration, 2010).
pIC50: −log10 of the molar value.

Assays:
SH-SY5Y cells = details: cited from earlier work
Text: (§1) Dynamin mediates both clathrin-dependent and -independent endocytosis (for review, [76]). We first used two pharmacological inhibitors to block the dynamin-dependent endocytic pathway, genistein (a general tyrosine kinase inhibitor) and PP2 (a Src family tyrosine kinase inhibitor). […] The result was consistent with previous reports that this agent protected from Aβ induced toxicity in cultured hippocampal neurons and SH-SY5Y cells.

[1] = tested on: cultured hippocampal neurons; details: cited from earlier work
Text: as §1

N2A cells [2] = tested on: N2A cells; set-up: lethality to N2A cells: dose or concentration left out as unconfirmed; details: cited from earlier work
N2A cells [3] = experiment: oAβ42-induced neurotoxicity in N2A cells, with inhibitor or siRNA (CellTiter-Glo ATP assay); format: cell-based, mouse; set-up: effect on Aβ42 toxicity: dose or concentration left out as unconfirmed
Description: Small interfering RNA (siRNA) for the clathrin heavy chain (CLTC, SMARTpool L-004001-00-0005) and control Non-Targeting siRNA were purchased from Dharmacon. Cells were transfected at 20 pmol siRNA in 24-well culture plates using LipofectAmine 2000 according to vendor's recommended transfection protocol. A second transfection was done the next day. These transfected cells were then split and seeded on to 96-well plate in MEM with 10% FBS. 48 hours post-transfection, these cells were treated with oAβ42 for 24 hours.

N2A cells [4] = details: co-cultures of primary neurons and glia, and Neuro-2A cells (N2A); cited from earlier work
Text: Here we focus mainly on endocytic pathways in relation to oAβ42 toxicity in N2A cells.

N2A cells [5] = tested on: N2A cells
Description: Mouse neuroblastoma, N2A cells (ATCC) were maintained in MEM (ATCC) supplemented with 10% FBS, 2 mM L-glutamine, 100 U/ml of penicillin, 100 ug/ml of streptomycin, as previously described. 5000 cells per well were plated on to 96-well plates 24 hours prior to treatment to allow attachment. Cells were then treated […] oAβ42 in DMEM medium without phenol red and with 1% N2 supplement (Invitrogen). At the end of the experiment (24 hours post-treatment), cell viability was assessed by relative cellular ATP levels using CellTiter-Glo assay kit (Promega) according to the manufacture's instruction. Statistical significance was established at p < 0.01 by One-way ANOVA with Tukey test for comparison in different groups.
N2A cells were treated with pharmacological inhibitors that block specific steps during endocytosis. […] Chlorpromazine (2 mM), genistein ([…]), PP2 (1 mM) were added to cell cultures at indicated concentrations 1 hr before oAβ42 treatment in DMEM with 1% N2 supplement. The final concentration of vehicle (DMSO) was 0.05% in all cultures.

neuroblastoma cell line = tested on: neuroblastoma cell line; set-up: method as in PMID 3796890; details: cited from earlier work

## O=c1c(-c2ccc(O)cc2)coc2cc(O)cc(O)c12 [genistein]
SH-SY5Y cells
  protection from Aβ induced toxicity: protected
[1]
  protection from Aβ induced toxicity: protected
N2A cells [2]; read-out: IC50, inhibition of growth of N2A cells, dose-dependent
  pIC50: 4.74
N2A cells [3]; pre-treated with 10 mM genistein for 1 hour, 10 μM oAβ42 for 24 hours, p < 0.01
  effect on oAβ42-induced toxicity: significantly inhibited

## CC(C)(C)n1nc(-c2ccc(Cl)cc2)c2c(N)ncnc21 [PP2]
N2A cells [2]
  lethality to N2A cells: lethal
N2A cells [3]; PP2 pre-treatment 1 hr before oAβ42, 24 hours, data not shown
  effect on Aβ42 toxicity: decreased Aβ42 toxicity though to a lesser extent than genistein

## oAβ42: Oligomer preparation of recombinant Aβ42 (rPeptide), formed in DMSO/Ham's F12 at 4°C for 24 hours
N2A cells [4]
  neurotoxicity of the oAβ42 preparation: causes neurotoxicity

## CN(C)CCCN1c2ccccc2Sc2ccc(Cl)cc21 [chlorpromazine]
N2A cells [5]
  toxicity to N2A cells: toxic
N2A cells [5]; N2A cells, 2 mM chlorpromazine, ATP-based CellTiter-Glo
  cell viability retained: 90%
N2A cells [3]; 2 mM chlorpromazine added 1 hr before oAβ42, 24 hours, data not shown
  effect on oAβ42 neurotoxicity: failed to block
Neuroblastoma cell line; 10^-4-10^-3 M
  effect on cells at higher concentration: killed cells
Neuroblastoma cell line; 10^-6-10^-5 M
  effect on Ca++-mediated toxicity at lower concentration: inhibited Ca^++-mediated toxicity
